This assay has as its target Receptor-type tyrosine-protein phosphatase kappa (Homo sapiens) (UniProt Q15262). Description: PTPRK phosphatase inhibition, biochemical, recombinant human enzyme, DiFMUP fluorescence (AID 404). The note with it: at 50 µM, enzyme 34 ng/mL, 25 °C, DTT 5 mM, stronger effect = higher value.

Chain of Receptor-type tyrosine-protein phosphatase kappa (Homo sapiens) (Q15262 whole entry, looked up): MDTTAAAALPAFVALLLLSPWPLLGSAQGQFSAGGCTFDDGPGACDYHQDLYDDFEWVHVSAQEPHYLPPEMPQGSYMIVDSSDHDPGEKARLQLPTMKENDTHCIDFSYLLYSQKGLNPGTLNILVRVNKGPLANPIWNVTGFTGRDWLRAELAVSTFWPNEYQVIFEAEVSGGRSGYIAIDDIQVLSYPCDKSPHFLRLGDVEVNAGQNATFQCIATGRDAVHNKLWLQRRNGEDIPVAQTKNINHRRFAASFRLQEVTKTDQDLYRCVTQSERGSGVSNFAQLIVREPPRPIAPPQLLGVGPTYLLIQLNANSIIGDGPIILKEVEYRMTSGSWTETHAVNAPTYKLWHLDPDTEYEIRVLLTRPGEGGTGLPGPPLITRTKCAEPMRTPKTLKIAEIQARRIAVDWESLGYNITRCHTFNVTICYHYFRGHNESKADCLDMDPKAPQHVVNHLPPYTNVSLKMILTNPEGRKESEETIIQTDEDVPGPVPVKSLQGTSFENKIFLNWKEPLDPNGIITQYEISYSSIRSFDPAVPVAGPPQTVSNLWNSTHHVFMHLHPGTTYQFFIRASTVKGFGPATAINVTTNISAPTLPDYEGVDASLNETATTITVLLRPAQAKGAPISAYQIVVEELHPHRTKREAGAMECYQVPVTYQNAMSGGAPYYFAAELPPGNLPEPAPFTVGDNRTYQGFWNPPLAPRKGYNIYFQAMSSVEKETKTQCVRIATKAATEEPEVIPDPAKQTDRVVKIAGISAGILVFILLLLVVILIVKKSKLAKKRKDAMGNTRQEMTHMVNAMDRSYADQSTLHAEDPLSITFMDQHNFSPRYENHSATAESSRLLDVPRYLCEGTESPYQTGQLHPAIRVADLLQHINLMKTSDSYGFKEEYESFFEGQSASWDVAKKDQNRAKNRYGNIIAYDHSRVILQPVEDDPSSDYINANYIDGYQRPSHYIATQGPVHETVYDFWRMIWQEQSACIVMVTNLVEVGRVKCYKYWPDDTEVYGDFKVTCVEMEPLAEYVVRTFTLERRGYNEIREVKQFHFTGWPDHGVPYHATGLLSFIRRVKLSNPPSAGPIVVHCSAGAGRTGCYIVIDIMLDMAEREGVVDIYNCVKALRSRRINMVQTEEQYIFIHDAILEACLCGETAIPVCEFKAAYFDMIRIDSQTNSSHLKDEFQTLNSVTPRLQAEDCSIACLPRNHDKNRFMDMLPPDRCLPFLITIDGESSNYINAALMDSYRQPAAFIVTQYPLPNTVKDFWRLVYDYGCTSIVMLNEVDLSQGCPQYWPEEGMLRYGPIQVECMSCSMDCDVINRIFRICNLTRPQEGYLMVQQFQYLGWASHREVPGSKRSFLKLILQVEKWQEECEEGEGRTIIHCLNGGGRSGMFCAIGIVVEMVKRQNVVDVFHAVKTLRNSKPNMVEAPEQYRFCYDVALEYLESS

As to `O=C(O)c1ccc(O)c(C=Nc2ccc3oc(-c4cccc(Cl)c4Cl)nc3c2)c1`, the inhibition was 45%.
Next, `CN(N=O)c1ccc(O)c(O)c1`: 96%; `COc1cccc(-c2nc3cc(N=Cc4cc(C(=O)O)ccc4O)ccc3o2)c1`: 29%; `O=C(O)c1ccc([O-])cn1.OO.OO.[K+].[K+].[O]=[V]`: 100%.
Turning to `NC1=NC(=O)/C(=C/C=C/c2ccc([N+](=O)[O-])o2)S1`, the inhibition was 24%.
With `OO.OO.[K+].[O]=[V].c1cnc2c(c1)ccc1cccnc12` the figure was 96%; with `O=C([O-])c1ccccn1.OO.OO.[K+].[K+].[O]=[V]`, 98%; with `CC(C)(c1ccc(NS(=O)(=O)C(F)(F)F)cc1)c1ccc(C(C)(C)c2ccc(NS(=O)(=O)C(F)(F)F)cc2)cc1`, 14%.
In the case of `O=C1NC(=S)NC(=O)C1=C/C=C/c1ccco1`, the inhibition was 22%.
With `CC(=O)c1ccc2c(c1)C1C=CCC1C(C(=O)O)N2` (configuration not stated) the figure was 40%; with `CC1(C)OC(=O)C(=Cc2ccc(Br)o2)C(=O)O1`, 11%; with `Cc1ccc2nc(-c3cc(N=Cc4cc(C(=O)O)ccc4O)ccc3O)[nH]c2c1`, 34%.
Next, `COc1ccc(-c2nc3cc(N=Cc4cc(C(=O)O)ccc4O)ccc3o2)cc1`: 72%; `Cc1ccc(N=Cc2cc(C(=O)O)ccc2O)c(O)c1`: 20%.
With `CC(C)CN1C(=O)c2ccc(C(=O)Nc3ccc(O)cc3C(=O)O)cc2C1=O` the figure was 41%; with `Oc1c(Cl)c(Cl)c(O)c2nsnc12`, 12%; with `O=C(Nc1ccc(O)cc1C(=O)O)c1ccc2c(c1)C(=O)N(CC1CCCO1)C2=O` (configuration not stated), 12%.
On to `Cc1c(Cl)c(C)c([N+](=O)[O-])c(O)c1C=Nc1ccc(O)cc1C(=O)O`, for which the inhibition was 78%.
As for `O=C1NC(=S)S/C1=C\C=C\c1ccc([N+](=O)[O-])o1`, the inhibition is 78%.
Next, `F`: 14%; `O=C(O)c1ccc(O)c(/C=N/N(CCO)C2=NS(=O)(=O)c3ccccc32)c1`: 32%.
In the case of `O=C(Nc1ccc(O)cc1C(=O)O)c1ccc(NC(=O)c2ccco2)cc1`, the inhibition was 18%.
As for `O=C(O)c1ccc(O)c(C=Nc2cccc(-c3nc4ccccc4o3)c2)c1`, the inhibition was 31%.
With `[NH-]CO.[NH-]CO.[NH-]CO.[NH-]CO.[O]=[V][O][V]=[O]` the figure was 89%; with `O=C(COc1ccc([N+](=O)[O-])cc1)Nc1ccc(O)cc1C(=O)O`, 20%.
With `CC1=C(C)OC(Nc2ccc(Br)cc2C(=O)O)C=C1` (configuration not stated) the figure was 15%; with `Cc1cc(C)c(N2C(=O)c3ccc(C(=O)Nc4ccc(O)cc4C(=O)O)cc3C2=O)c(C)c1`, 38%; with `CC(C)CCN1C(=O)c2ccc(C(=O)Nc3ccc(O)cc3C(=O)O)cc2C1=O`, 14%.
With `OO.OO.[K+].[O]=[V].c1ccc(-c2ccccn2)nc1`, the inhibition was 93%.
`CC(C)(C)NC(=O)CCN(/N=C/c1cc(C(=O)O)ccc1O)C1=NS(=O)(=O)c2ccccc21`: the inhibition is 30%.
Next, `O=C(O)c1ccc(O)c(C=Nc2ccc3oc(-c4cc(Cl)ccc4Cl)nc3c2)c1`: 15%; `O=C(O)c1ccc(O)cn1.OO.[O]=[V]`: 94%.

As a reminder, the inhibition is the change of the read-out against control, counted positive when it falls.

(Values after PubChem BioAssay AID404 (SGCOxCompounds, 2006).)
